Reference: paper PMC5218480 (PLoS ONE, 2017)

Tested on: MV-4-11 cells
Assay: Gene expression microarray analysis (Affymetrix PrimeView) and GSEA
Assay type: cell-based, human
Set-up: RFU PODN (11730768_x_at) / Fold change /veh PODN (11730768_x_at) / RFU LINC00158 (11744669_a_at) / Fold change /veh LINC00158 (11744669_a_at) / RFU DUSP10 (11751237_a_at) / Fold change /veh DUSP10 (11751237_a_at) / RFU ID3 (11757404_x_at) / Fold change /veh ID3 (11757404_x_at) / RFU PLEKHG5 (11737974_s_at) / Fold change /veh PLEKHG5 (11737974_s_at) / RFU LRRC4B (11730491_at) / Fold change /veh LRRC4B (11730491_at) / RFU GIMAP4 (11747438_a_at) / Fold change /veh GIMAP4 (11747438_a_at) / RFU KRT8 (11758183_x_at) / Fold change /veh KRT8 (11758183_x_at) / RFU CNN1 (11734310_a_at) / Fold change /veh CNN1 (11734310_a_at) / RFU VPS37D (11726825_at) / Fold change /veh VPS37D (11726825_at) / RFU C10orf10 (11716522_x_at) / Fold change /veh C10orf10 (11716522_x_at) / RFU KIR2DL2 /// KIR2DL4 /// KIR2DL5A /// KIR2DL5B /// KIR2DS1 /// KIR2DS2 /// KIR2DS3 /// KIR2DS4 /// KIR3DL3 /// KIR3DL3 /// KIR3DS1 (11738374_at) / Fold change /veh KIR2DL2 /// KIR2DL4 /// KIR2DL5A /// KIR2DL5B /// KIR2DS1 /// KIR2DS2 /// KIR2DS3 /// KIR2DS4 /// KIR3DL3 /// KIR3DL3 /// KIR3DS1 (11738374_at) / RFU C1QL1 (11718748_at) / Fold change /veh C1QL1 (11718748_at) / RFU TMPRSS4 (11747572_a_at) / Fold change /veh TMPRSS4 (11747572_a_at) / RFU HAMP (11756126_x_at) / Fold change /veh HAMP (11756126_x_at) / RFU RNFT2 (11725882_a_at) / Fold change /veh RNFT2 (11725882_a_at) / RFU NR4A2 (11747474_a_at) / Fold change /veh NR4A2 (11747474_a_at) / RFU ABCC12 (11746883_a_at) / Fold change /veh ABCC12 (11746883_a_at) / RFU TMEM136 (11760407_x_at) / Fold change /veh TMEM136 (11760407_x_at) / RFU CLDN22 /// WWC2 (11732394_at) / Fold change /veh CLDN22 /// WWC2 (11732394_at) / RFU HLA-DPB1 (11760878_x_at) / Fold change /veh HLA-DPB1 (11760878_x_at) / RFU SPINT1 (11716480_a_at) / Fold change /veh SPINT1 (11716480_a_at) / RFU GAP43 (11754022_s_at) / Fold change /veh GAP43 (11754022_s_at) / RFU A4GNT (11735810_at) / Fold change /veh A4GNT (11735810_at) / RFU PRB3 (11715151_x_at) / Fold change /veh PRB3 (11715151_x_at) / RFU TUBB4B (11761932_at) / Fold change /veh TUBB4B (11761932_at) / RFU CAPN14 (11732068_a_at) / Fold change /veh CAPN14 (11732068_a_at) / RFU TMCC2 (11721928_a_at) / Fold change /veh TMCC2 (11721928_a_at) / RFU IRGQ (11745062_a_at) / Fold change /veh IRGQ (11745062_a_at) / RFU FAM174B (11720279_a_at) / Fold change /veh FAM174B (11720279_a_at) / RFU TMPRSS4 (11748680_a_at) / Fold change /veh TMPRSS4 (11748680_a_at) / RFU FAM212B (11763350_a_at) / Fold change /veh FAM212B (11763350_a_at) / RFU PLEKHG5 (11743358_a_at) / Fold change /veh PLEKHG5 (11743358_a_at) / RFU ZSCAN30 (11745921_a_at) / Fold change /veh ZSCAN30 (11745921_a_at) / RFU CMKLR1 (11741424_a_at) / Fold change /veh CMKLR1 (11741424_a_at) / RFU LOC101060620 /// MAPK8IP1 (11723275_at) / Fold change /veh LOC101060620 /// MAPK8IP1 (11723275_at) / RFU SPTSSB (11747773_x_at) / Fold change /veh SPTSSB (11747773_x_at) / RFU PRSS12 (11739890_at) / Fold change /veh PRSS12 (11739890_at) / RFU BIN1 (11741810_x_at) / Fold change /veh BIN1 (11741810_x_at) / RFU WNT11 (11732464_a_at) / Fold change /veh WNT11 (11732464_a_at) / RFU C10orf10 (11716521_a_at) / Fold change /veh C10orf10 (11716521_a_at) / RFU C5orf56 (11738089_at) / Fold change /veh C5orf56 (11738089_at) / RFU CYB561 (11721691_x_at) / Fold change /veh CYB561 (11721691_x_at) / RFU ANKRD19P (11752326_a_at) / Fold change /veh ANKRD19P (11752326_a_at) / RFU OR2T12 /// OR2T33 /// OR2T8 (11738714_s_at) / Fold change /veh OR2T12 /// OR2T33 /// OR2T8 (11738714_s_at) / RFU VCAN (11748164_a_at) / Fold change /veh VCAN (11748164_a_at) / RFU JSRP1 (11732532_at) / Fold change /veh JSRP1 (11732532_at) / RFU KRTAP10-11 (11738290_x_at) / Fold change /veh KRTAP10-11 (11738290_x_at) / RFU MYO3A (11730013_a_at) / Fold change /veh MYO3A (11730013_a_at) / RFU EBF3 (11725865_a_at) / Fold change /veh EBF3 (11725865_a_at) / RFU CAMK2N1 (11719241_x_at) / Fold change /veh CAMK2N1 (11719241_x_at) / RFU C5orf56 (11738088_a_at) / Fold change /veh C5orf56 (11738088_a_at) / RFU OLFML3 (11715873_a_at) / Fold change /veh OLFML3 (11715873_a_at) / RFU LOC100653217 /// NTM (11731650_a_at) / Fold change /veh LOC100653217 /// NTM (11731650_a_at) / RFU MAPK11 (11762145_a_at) / Fold change /veh MAPK11 (11762145_a_at) / RFU FIZ1 (11724087_x_at) / Fold change /veh FIZ1 (11724087_x_at) / RFU OASL (11726364_x_at) / Fold change /veh OASL (11726364_x_at) / RFU SOX15 (11748057_x_at) / Fold change /veh SOX15 (11748057_x_at) / RFU CD79A (11719716_a_at) / Fold change /veh CD79A (11719716_a_at) / RFU HIST1H1D (11736915_at) / Fold change /veh HIST1H1D (11736915_at) / RFU CASKIN2 (11723855_a_at) / Fold change /veh CASKIN2 (11723855_a_at) / RFU LOC730098 (11760151_x_at) / Fold change /veh LOC730098 (11760151_x_at) / RFU OR4N2 (11742367_at) / Fold change /veh OR4N2 (11742367_at) / RFU PRRT2 (11749266_a_at) / Fold change /veh PRRT2 (11749266_a_at) / RFU SNX32 (11753110_a_at) / Fold change /veh SNX32 (11753110_a_at) / RFU CDHR5 (11726645_a_at) / Fold change /veh CDHR5 (11726645_a_at) / RFU RCAN1 (11760418_a_at) / Fold change /veh RCAN1 (11760418_a_at) / RFU FAM167A (11723789_a_at) / Fold change /veh FAM167A (11723789_a_at) / RFU FAM26E (11764081_at) / Fold change /veh FAM26E (11764081_at) / RFU ISYNA1 (11749810_s_at) / Fold change /veh ISYNA1 (11749810_s_at) / RFU ACY1 (11761880_at) / Fold change /veh ACY1 (11761880_at) / RFU 11764098_at / Fold change /veh 11764098_at / RFU SAMD14 (11745864_x_at) / Fold change /veh SAMD14 (11745864_x_at) / RFU NPB (11741838_a_at) / Fold change /veh NPB (11741838_a_at) / RFU TMPRSS6 (11731388_a_at) / Fold change /veh TMPRSS6 (11731388_a_at) / RFU KRTAP10-2 (11738614_at) / Fold change /veh KRTAP10-2 (11738614_at) / RFU ARHGAP8 /// PRR5-ARHGAP8 (11727945_x_at) / Fold change /veh ARHGAP8 /// PRR5-ARHGAP8 (11727945_x_at) / RFU KRTAP5-7 /// NADSYN1 (11734609_at) / Fold change /veh KRTAP5-7 /// NADSYN1 (11734609_at) / RFU RASL12 (11751679_a_at) / Fold change /veh RASL12 (11751679_a_at) / RFU CDKN2B (11736163_a_at) / Fold change /veh CDKN2B (11736163_a_at) / RFU PRF1 (11729649_at) / Fold change /veh PRF1 (11729649_at) / RFU, ZNF638 /// ZNF638-IT1 / Fold change vs veh, ZNF638 /// ZNF638-IT1 / RFU, PANK3 / Fold change vs veh, PANK3 / RFU, SH3YL1 / Fold change vs veh, SH3YL1 / RFU, ZEB2 / Fold change vs veh, ZEB2 / RFU, NRIP1 / Fold change vs veh, NRIP1 / RFU, PTTG1IP / Fold change vs veh, PTTG1IP / RFU, CAPN2 / Fold change vs veh, CAPN2 / RFU, MED14 / Fold change vs veh, MED14 / RFU, SNORA58 / Fold change vs veh, SNORA58 / RFU, C1orf63 / Fold change vs veh, C1orf63 / RFU, LRRFIP1 / Fold change vs veh, LRRFIP1 / RFU, NDUFAF7 / Fold change vs veh, NDUFAF7 / RFU, SLC12A2 / Fold change vs veh, SLC12A2 / RFU, IBTK / Fold change vs veh, IBTK / RFU, ESF1 / Fold change vs veh, ESF1 / Fold change vs veh, TMEM50B / RFU, TAOK1 / Fold change vs veh, TAOK1 / RFU, ACBD3 / Fold change vs veh, ACBD3 / RFU, TMA16 / Fold change vs veh, TMA16 / RFU, RWDD3 / Fold change vs veh, RWDD3 / RFU, BCAT1 / Fold change vs veh, BCAT1 / RFU, EDEM3 / Fold change vs veh, EDEM3 / RFU, TMEM33 / Fold change vs veh, TMEM33 / RFU, WDR75 / Fold change vs veh, WDR75 / RFU, AHCTF1 / Fold change vs veh, AHCTF1 / RFU, TFRC / Fold change vs veh, TFRC / RFU, ZDHHC17 / Fold change vs veh, ZDHHC17 / RFU, NOM1 / Fold change vs veh, NOM1 / RFU, ARL8B / Fold change vs veh, ARL8B / RFU, ZBTB11 / Fold change vs veh, ZBTB11 / RFU, TAMM41 / Fold change vs veh, TAMM41 / RFU, KIAA1704 /// LOC100996395 / Fold change vs veh, KIAA1704 /// LOC100996395 / RFU, ING1 / Fold change vs veh, ING1 / RFU, TRMT61B / Fold change vs veh, TRMT61B / RFU, FUBP3 / Fold change vs veh, FUBP3 / RFU, TP53 / Fold change vs veh, TP53 / RFU, TNKS2 / Fold change vs veh, TNKS2 / RFU, ZFP14 / Fold change vs veh, ZFP14 / RFU, ACTR2 / Fold change vs veh, ACTR2 / RFU, PPP3R1 / Fold change vs veh, PPP3R1 / RFU, PIK3R1 / Fold change vs veh, PIK3R1 / RFU, HNRNPA1 / Fold change vs veh, HNRNPA1 / RFU, RNF170 / Fold change vs veh, RNF170 / RFU, ZNF28 / Fold change vs veh, ZNF28 / RFU, RNGTT / Fold change vs veh, RNGTT / RFU, OGT / Fold change vs veh, OGT / RFU, BRD1 / Fold change vs veh, BRD1 / RFU, MARS / Fold change vs veh, MARS / RFU, ZNF655 / Fold change vs veh, ZNF655 / RFU, FAHD1 / Fold change vs veh, FAHD1 / RFU, BDP1 / Fold change vs veh, BDP1 / RFU, LRRCC1 / Fold change vs veh, LRRCC1 / RFU, ARID1A / Fold change vs veh, ARID1A / RFU, ZNF146 / Fold change vs veh, ZNF146 / RFU, ZNF330 / Fold change vs veh, ZNF330 / RFU, GPN3 / Fold change vs veh, GPN3 / RFU, C9orf123 / Fold change vs veh, C9orf123 / RFU, N4BP2L2 / Fold change vs veh, N4BP2L2 / RFU, ARFIP1 / Fold change vs veh, ARFIP1 / RFU, FAM179B / Fold change vs veh, FAM179B / RFU, BCL10 / Fold change vs veh, BCL10 / RFU, UHRF1BP1L / Fold change vs veh, UHRF1BP1L / RFU, BET1 / Fold change vs veh, BET1 / RFU, CNOT2 / Fold change vs veh, CNOT2 / RFU, ZNF268 / Fold change vs veh, ZNF268 / Fold change vs veh, ZNF507 / RFU, DGCR2 / Fold change vs veh, DGCR2 / RFU, WDSUB1 / Fold change vs veh, WDSUB1 / Fold change vs veh, HSP90B1 /// MIR3652 / RFU, ADSS / Fold change vs veh, ADSS / RFU, GK / Fold change vs veh, GK / RFU, ZNF148 / Fold change vs veh, ZNF148 / RFU, TAF9 / Fold change vs veh, TAF9 / RFU, SLC1A5 / Fold change vs veh, SLC1A5 / RFU, SLMO2 / Fold change vs veh, SLMO2 / RFU, ABCC4 / Fold change vs veh, ABCC4 / RFU, LOC101060439 /// RAP1B / Fold change vs veh, LOC101060439 /// RAP1B / RFU, RFX7 / Fold change vs veh, RFX7 / RFU, GTPBP10 / Fold change vs veh, GTPBP10 / RFU, CNEP1R1 / Fold change vs veh, CNEP1R1 / RFU, BIVM-ERCC5 /// ERCC5 / Fold change vs veh, BIVM-ERCC5 /// ERCC5 / RFU, ILF3 / Fold change vs veh, ILF3 / RFU 11762660_at / Fold change /veh 11762660_at / RFU VCAN (11757783_s_at) / Fold change /veh VCAN (11757783_s_at) / RFU DDX43 (11728927_at) / Fold change /veh DDX43 (11728927_at) / RFU KRT8 (11758188_x_at) / Fold change /veh KRT8 (11758188_x_at) / RFU NKD1 (11759106_at) / Fold change /veh NKD1 (11759106_at) / RFU SRD5A1 (11742802_a_at) / Fold change /veh SRD5A1 (11742802_a_at) / RFU TPSAB1 /// TPSB2 (11721975_s_at) / Fold change /veh TPSAB1 /// TPSB2 (11721975_s_at) / RFU GSTM3 (11746129_a_at) / Fold change /veh GSTM3 (11746129_a_at) / RFU IL23R (11737362_x_at) / Fold change /veh IL23R (11737362_x_at) / RFU TMEM51 (11727254_a_at) / Fold change /veh TMEM51 (11727254_a_at) / RFU PIWIL2 (11732686_x_at) / Fold change /veh PIWIL2 (11732686_x_at) / RFU ORM1 (11744905_x_at) / Fold change /veh ORM1 (11744905_x_at) / RFU CCDC152 (11743942_at) / Fold change /veh CCDC152 (11743942_at) / RFU ECM1 (11717891_a_at) / Fold change /veh ECM1 (11717891_a_at) / RFU IL23R (11748794_a_at) / Fold change /veh IL23R (11748794_a_at) / RFU TNFAIP8L3 (11732012_x_at) / Fold change /veh TNFAIP8L3 (11732012_x_at) / RFU MBOAT4 (11741988_at) / Fold change /veh MBOAT4 (11741988_at) / RFU 11764193_at / Fold change /veh 11764193_at / RFU TMEM53 (11763286_at) / Fold change /veh TMEM53 (11763286_at) / RFU MAGEB2 (11727129_at) / Fold change /veh MAGEB2 (11727129_at) / RFU TMEM200A (11744735_a_at) / Fold change /veh TMEM200A (11744735_a_at) / RFU CCDC152 (11751479_a_at) / Fold change /veh CCDC152 (11751479_a_at) / RFU FAM211A (11726209_a_at) / Fold change /veh FAM211A (11726209_a_at) / RFU RGS16 (11746705_a_at) / Fold change /veh RGS16 (11746705_a_at) / RFU VCAN (11755009_s_at) / Fold change /veh VCAN (11755009_s_at) / RFU RHOB (11743442_s_at) / Fold change /veh RHOB (11743442_s_at) / RFU RGS16 (11720943_a_at) / Fold change /veh RGS16 (11720943_a_at) / RFU RGS16 (11720944_at) / Fold change /veh RGS16 (11720944_at) / RFU, VPS4B / Fold change vs veh, VPS4B / RFU, CREB1 / Fold change vs veh, CREB1 / RFU, DNAJC13 / Fold change vs veh, DNAJC13 / RFU, GNAQ / Fold change vs veh, GNAQ / RFU, CDK5R1 / Fold change vs veh, CDK5R1 / RFU, ZRANB3 / Fold change vs veh, ZRANB3 / RFU, CUL4A / Fold change vs veh, CUL4A / RFU, CCNY / Fold change vs veh, CCNY / RFU, UFL1 / Fold change vs veh, UFL1 / RFU, COG3 / Fold change vs veh, COG3 / RFU, DIAPH2 / Fold change vs veh, DIAPH2 / RFU, SKA2 / Fold change vs veh, SKA2 / RFU, AFF3 / Fold change vs veh, AFF3 / RFU, LMF1 / Fold change vs veh, LMF1 / RFU, IPO11 / Fold change vs veh, IPO11 / RFU, DFFB / Fold change vs veh, DFFB / RFU, FOXP1 / Fold change vs veh, FOXP1 / RFU, CARD8 / Fold change vs veh, CARD8 / RFU, STRN3 / Fold change vs veh, STRN3 / RFU, ADK / Fold change vs veh, ADK / RFU, RASSF2 / Fold change vs veh, RASSF2 / RFU, WIPF1 / Fold change vs veh, WIPF1 / RFU, LARP1B / Fold change vs veh, LARP1B / RFU, RASA1 / Fold change vs veh, RASA1 / RFU, RB1 / Fold change vs veh, RB1 / RFU, PPFIA1 / Fold change vs veh, PPFIA1 / RFU, MAT2A / Fold change vs veh, MAT2A / RFU, CCT5 / Fold change vs veh, CCT5 / RFU, WDR92 / Fold change vs veh, WDR92 / RFU, CUX1 / Fold change vs veh, CUX1 / RFU, TTC7A / Fold change vs veh, TTC7A / RFU, TMEM135 / Fold change vs veh, TMEM135 / RFU, DEPTOR / Fold change vs veh, DEPTOR / RFU, CPM / Fold change vs veh, CPM / RFU, DNAJB6 / Fold change vs veh, DNAJB6 / RFU, CACNA2D3 / Fold change vs veh, CACNA2D3 / RFU, DTX4 / Fold change vs veh, DTX4 / RFU, TFCP2 / Fold change vs veh, TFCP2 / RFU, GMCL1 /// GMCL1P1 / Fold change vs veh, GMCL1 /// GMCL1P1 / RFU, AEBP2 / Fold change vs veh, AEBP2 / RFU, SNHG1 /// SNORD22 /// SNORD25 /// SNORD26 /// SNORD27 /// SNORD28 /// SNORD29 /// SNORD31 / Fold change vs veh, SNHG1 /// SNORD22 /// SNORD25 /// SNORD26 /// SNORD27 /// SNORD28 /// SNORD29 /// SNORD31 / Fold change (Aza/veh), C12orf56 (ProbeSet 11735607_a_at) / Fold change (ACY-1035/veh), C12orf56 (ProbeSet 11735607_a_at) / Fold change (Aza/veh), FGFR1OP (ProbeSet 11751329_s_at) / Fold change (ACY-1035/veh), FGFR1OP (ProbeSet 11751329_s_at) / Fold change (Aza/veh), VPS36 (ProbeSet 11739960_a_at) / Fold change (ACY-1035/veh), VPS36 (ProbeSet 11739960_a_at) / RFU SYPL1 (11715823_x_at) / Fold change /veh SYPL1 (11715823_x_at) / RFU IGFBP7 (11715501_s_at) / Fold change /veh IGFBP7 (11715501_s_at) / RFU REEP3 (11722064_at) / Fold change /veh REEP3 (11722064_at) / RFU IGLL1 (11728026_x_at) / Fold change /veh IGLL1 (11728026_x_at): dose or concentration left out as unconfirmed
Settings: MV-4-11 cells, 48 hours

## Nc1ncn([C@@H]2O[C@H](CO)[C@@H](O)[C@H]2O)c(=O)n1 [azacitidine]
  RFU OASL (11726364_x_at): 34.50 RFU
